Like-named read-outs stand apart in the source and are kept apart here.
Experiments:
[1] = biological target: T1, human eIF4E protein (Homo sapiens, UniProt P06730); assay: Biochemical competitive binding assay (TR-FRET competition, EDA-m7GDP-ATTO-647N probe); conditions: read-out: hEIF4E TR-FRET IC50
T1 construct: purchased Novus NBP-45314
In short: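 His-tagged human eIF4E (4 nM) was preincubated with Eu-anti-His antibody (2.5 nM) and added to compound (11-point, 4-fold dilutions) for 15 min. Then 5 nM EDA-m7GDP-ATTO-647N was added for 15 min, in HEPES pH 7.5, 100 mM KCl. The 665/620 TR-FRET ratio was normalized to controls, and IC50 was taken from 4-parameter fits.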

[2] = tested on: COLO 205 colorectal tumor cells; assay: Tumor cell viability inhibition assay (CellTiter-Glo 2.0, 72 hours); format: cell-based; conditions: COLO 205 cell viability
In short: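 COLO 205 cells (1500/well, RPMI-1640 + 10% FBS) exposed for 72 h to an 11-point, 4-fold dilution series; cellular ATP read by CellTiter-Glo 2.0 luminescence. Data normalized to DMSO and maximum-inhibition controls; IC50 from 4-parameter curve fit.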

[3] = tested on: cap-dependent translation in Flp-In-293 reporter cells; assay: Cellular cap-dependent translation inhibition assay (dual luciferase assay, DLA; Fluc/Rluc ratio, 24 hours); format: cell-based
[4] = Homo sapiens, Flp-In-293, 24 h, dual luciferase assay, Flp-In-293 reporter cells, 24 hours, Fluc/Rluc ratio, read-out: DLA 205 IC50
[5] = dual luciferase assay, Flp-In-293 reporter cells, 24 hours, Fluc/Rluc ratio, read-out: DLA 205 IC50
[6] = Homo sapiens, Flp-In-293, 24 h, read-out: DLA 205 IC50, dual luciferase assay, Flp-In-293 reporter cells, 24 hours, Fluc/Rluc ratio

T1 sequence (P06730 whole entry): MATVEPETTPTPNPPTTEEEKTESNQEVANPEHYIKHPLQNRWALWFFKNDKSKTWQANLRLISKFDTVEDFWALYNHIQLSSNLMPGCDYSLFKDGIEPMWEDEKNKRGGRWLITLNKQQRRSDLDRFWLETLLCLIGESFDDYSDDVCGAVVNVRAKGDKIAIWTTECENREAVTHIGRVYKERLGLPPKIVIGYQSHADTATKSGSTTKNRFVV

Compound	IC50 [1] [µM]	IC50 ([2]; Homo sapiens, COLO 205, 72 h) [µM]	IC50 [2] [µM]	IC50 [3, 4] [µM]	IC50 [3, 5] [µM]	IC50 ([2]; Homo sapiens) [µM]	IC50 [3, 6] [µM]
Cc1cc(-c2cc(Cl)ccc2OCCn2c(C)nc3c(c2=O)CC(N(C)C2(c4ccc(F)cc4)CC2)CC3)c2scc(C(=O)NS(C)(=O)=O)c2n1 (stereo not drawn) [Compound 274]	0.1 to 0.5	5 to 20		1 to 5			
Cc1cc(-c2cc(Cl)ccc2OCCn2c(C)nc3c(c2=O)CC(N2CCC2)CC3)c2scc(C(=O)O)c2n1 (stereo not drawn) [Compound 8]	< 0.1					5 to 20	< 1
Cc1cc(-c2cc(Cl)ccc2OCCn2c(C)nc3c(c2=O)CC(N2CCOCC2)CC3)c2scc(C(=O)O)c2n1 (stereo not drawn) [Compound 9]	< 0.1					< 5	< 1
COC(=O)c1csc2c(-c3cc(Cl)ccc3OCCn3c(C)nc4c(c3=O)CC(N(CC(F)(F)F)C3CC3)CC4)cc(C)nc12 (stereo not drawn) [Compound 353]	0.5 to 5	> 20		> 5			
Cc1nc2c(c(=O)n1CC#Cc1ccc(Cl)cc1-c1ccnc3c(C(=O)O)csc13)CC(N(C)C)CC2 (single isomer, unassigned) [Compound 296]	0.5 to 5	> 20		> 5			
Cc1cc(-c2cc(Cl)ccc2OCCn2c(C)nc3c(c2=O)CC(N(C)C(=O)C2CCN(C)CC2)CC3)c2scc(C(=O)O)c2n1 (stereo not drawn) [Compound 74]	< 0.1	> 20		> 5			
Cc1cc(-c2cc(Cl)ccc2OCCn2c(C)nc3c(c2=O)C[C@H](N2CCC[C@H](F)C2)CC3)c2scc(C(=O)O)c2n1 (single isomer, unassigned) [Compound 283]	< 0.1	< 5		< 1			
COC(=O)c1csc2c(-c3cc(Cl)ccc3OCCn3c(C)nc4c(c3=O)CC(N(C3CC3)C3CC3)CC4)cc(C)nc12 (stereo not drawn) [Compound 339]	0.5 to 5	5 to 20		> 5			
Cc1cc(-c2cc(Cl)ccc2OCCn2c(C)nc3c(c2=O)CC(N2CC4(COC4)C2)CC3)c2scc(C(=O)O)c2n1 (stereo not drawn) [Compound 20]	< 0.1	< 5		< 1			
Cc1cc(-c2cc(Cl)ccc2OCCn2c(C)nc3c(c2=O)CC(N(C)C2(c4ccc(F)cc4)CC2)CC3)c2scc(C(=O)O)c2n1 (single isomer, unassigned) [Compound 281]	0.1 to 0.5		5 to 20		1 to 5		
Cc1nc2c(c(=O)n1CC#Cc1ccc(Cl)cc1-c1ccnc3c(C(=O)NS(C)(=O)=O)csc13)CC(N(C)Cc1ccncc1)CC2 (single isomer, unassigned) [Compound 314]	< 0.1		5 to 20		1 to 5		
Cc1cc(-c2cc(Cl)ccc2OCCn2c(C)nc3c(c2=O)CC(N(C)C(=O)C2CCN(C)CC2)CC3)c2scc(C(=O)NS(C)(=O)=O)c2n1 (stereo not drawn) [Compound 84]	< 0.1	> 20		> 5			
Cc1cc(-c2cc(Cl)ccc2OCCn2c(C)cc3c(c2=O)CC2(CC3)CN(C)C2)c2scc(C(=O)O)c2n1 [Compound 269]	< 0.1	> 20		> 5			
Cc1cc(-c2cc(Cl)ccc2OCCn2c(C)nc3c(c2=O)CC(N(C)Cc2ccncc2)CC3)c2scc(C(=O)O)c2n1 (stereo not drawn) [Compound 16]	< 0.1	< 5		< 1			

Second part, led by results:

IC50 [1] [µM]	IC50 ([2]; Homo sapiens, COLO 205, 72 h) [µM]	IC50 [2] [µM]	Compound	IC50 [3, 4] [µM]	IC50 [3, 5] [µM]	IC50 ([2]; Homo sapiens) [µM]	IC50 [3, 6] [µM]
< 0.1	< 5		Cc1cc(-c2cc(Cl)ccc2OCCn2c(C)nc3c(c2=O)CC(N(C)C)CC3)c2ccc(C(=O)NS(C)(=O)=O)n2n1 (stereo not drawn) [Compound 59, 4-[5-chloranyl-2-[2-[6-[di(methyl)amino]-2-methyl-4-oxidanylidene-5,6,7,8-tetrahydroquinazolin-3-yl]ethoxy]phenyl]-2-methyl-N-methylsulfonyl-pyrrolo[1,2-b]pyridazine-7-carboxamide]	< 1			
< 0.1	5 to 20		Cc1cc(-c2cc(Cl)ccc2OCCn2c(C)nc3c(c2=O)CC(N(C)C24CC(C)(C2)C4(F)F)CC3)c2scc(C(=O)NS(C)(=O)=O)c2n1 (stereo not drawn) [Compound 288]	1 to 5			
< 0.1	> 20		Cc1cc(-c2cc(Cl)ccc2OCCn2c(C)nc3c(c2=O)CC(N2CCN(C)C(=O)C2)CC3)c2scc(C(=O)NS(C)(=O)=O)c2n1 (stereo not drawn) [Compound 88]	> 5			
< 0.1	5 to 20		Cc1cc(-c2cc(Cl)ccc2OCCn2c(C)nc3c(c2=O)CC(N(C)C2CCOCC2)CC3)c2scc(C(=O)O)c2n1 (stereo not drawn) [Compound 77]	< 1			
< 0.1		5 to 20	Cc1sc2c(-c3cc(Cl)ccc3OCCn3c(C)nc4c(c3=O)CC(N(C)CC3CC(F)(F)C3)CC4)cn(C)c(=O)c2c1C(=O)O (single isomer, unassigned) [Compound 252]		1 to 5		
< 0.1	5 to 20		Cc1cc(-c2cc(Cl)ccc2OCCn2c(C)nc3c(c2=O)CC(N(CC(F)(F)F)C2CCC2)CC3)c2scc(C(=O)O)c2n1 (stereo not drawn) [Compound 83]	1 to 5			
< 0.1	< 5		COCCN(C)C1CCc2nc(C)n(CCOc3ccc(Cl)cc3-c3cc(C)nc4c(C(=O)O)csc34)c(=O)c2C1 (stereo not drawn) [Compound 33]	< 1			
< 0.1	< 5		Cc1cc(-c2cc(Cl)ccc2OCCn2c(C)nc3c(c2=O)CC(N(C)C2CC(F)(F)C2)CC3)c2scc(C(=O)NS(C)(=O)=O)c2n1 (single isomer, unassigned) [Compound 93]	< 1			
< 0.1	> 20		Cc1cc(-c2cc(Cl)ccc2OCCn2c(C)nc3c(c2=O)CC(N(C)C)CC3)c2ccc(C(=O)O)n2n1 (stereo not drawn) [Compound 36, 4-[5-chloranyl-2-[2-[6-[di(methyl)amino]-2-methyl-4-oxidanylidene-5,6,7,8-tetrahydroquinazolin-3-yl]ethoxy]phenyl]-2-methyl-pyrrolo[1,2-b]pyridazine-7-carboxylic acid]	> 5			
< 0.1	< 5		Cc1cc(-c2cc(Cl)ccc2OCCn2c(C)nc3c(c2=O)CC(N(C2CCC2)C2CC(F)(F)C2)CC3)c2scc(C(=O)NS(C)(=O)=O)c2n1 (stereo not drawn) [Compound 98]	< 1			
< 0.1	< 5		Cc1cc(-c2cc(Cl)ccc2OCCn2c(C)nc3c(c2=O)C[C@@H](N2CCC[C@H](F)C2)CC3)c2scc(C(=O)O)c2n1 (single isomer, unassigned) [Compound 282]	< 1			
< 0.1	> 20		Cc1cc(-c2cc(Cl)ccc2OCCn2c(C)nc3c(c2=O)CC(N(C)C(=O)C2CCN(CC(F)(F)F)CC2)CC3)c2scc(C(=O)O)c2n1 (stereo not drawn) [Compound 71]	> 5			
< 0.1	< 5		Cc1nc2c(c(=O)n1CC#Cc1ccc(Cl)cc1-c1ccnc3c(C(=O)NS(C)(=O)=O)csc13)CC(N(C)C1CC(F)(F)C1)CC2 (single isomer, unassigned) [Compound 333]	< 1			
< 0.1	> 20		Cc1cc(-c2cc(Cl)ccc2OCCn2c(C)nc3c(c2=O)CC(N2CCN(C)C(=O)C2)CC3)c2scc(C(=O)O)c2n1 (stereo not drawn) [Compound 95]	> 5			
< 0.1	< 5		Cc1cc(-c2cc(Cl)ccc2OCCn2c(C)nc3c(c2=O)CC(N(C)Cc2ccncc2)CC3)c2scc(C(=O)NS(C)(=O)=O)c2n1 (stereo not drawn) [Compound 68]	< 1			
< 0.1	< 5		Cc1cc(-c2cc(Cl)ccc2OCCn2c(C)nc3c(c2=O)CC(N2CCC(F)(F)CC2)CC3)c2scc(C(=O)NS(C)(=O)=O)c2n1 (stereo not drawn) [Compound 52]	< 1			

Source: US20240246918A1, “COMPOUNDS AND COMPOSITIONS AS EIF4E INHIBITORS AND THE USES THEREOF” (Ribometrix, Inc., priority 2022, published 2024)
